Assay [1] deals with T1, Potassium voltage-gated channel subfamily B member 1 (Homo sapiens, UniProt Q14721).
T1 sequence (Q14721 whole entry): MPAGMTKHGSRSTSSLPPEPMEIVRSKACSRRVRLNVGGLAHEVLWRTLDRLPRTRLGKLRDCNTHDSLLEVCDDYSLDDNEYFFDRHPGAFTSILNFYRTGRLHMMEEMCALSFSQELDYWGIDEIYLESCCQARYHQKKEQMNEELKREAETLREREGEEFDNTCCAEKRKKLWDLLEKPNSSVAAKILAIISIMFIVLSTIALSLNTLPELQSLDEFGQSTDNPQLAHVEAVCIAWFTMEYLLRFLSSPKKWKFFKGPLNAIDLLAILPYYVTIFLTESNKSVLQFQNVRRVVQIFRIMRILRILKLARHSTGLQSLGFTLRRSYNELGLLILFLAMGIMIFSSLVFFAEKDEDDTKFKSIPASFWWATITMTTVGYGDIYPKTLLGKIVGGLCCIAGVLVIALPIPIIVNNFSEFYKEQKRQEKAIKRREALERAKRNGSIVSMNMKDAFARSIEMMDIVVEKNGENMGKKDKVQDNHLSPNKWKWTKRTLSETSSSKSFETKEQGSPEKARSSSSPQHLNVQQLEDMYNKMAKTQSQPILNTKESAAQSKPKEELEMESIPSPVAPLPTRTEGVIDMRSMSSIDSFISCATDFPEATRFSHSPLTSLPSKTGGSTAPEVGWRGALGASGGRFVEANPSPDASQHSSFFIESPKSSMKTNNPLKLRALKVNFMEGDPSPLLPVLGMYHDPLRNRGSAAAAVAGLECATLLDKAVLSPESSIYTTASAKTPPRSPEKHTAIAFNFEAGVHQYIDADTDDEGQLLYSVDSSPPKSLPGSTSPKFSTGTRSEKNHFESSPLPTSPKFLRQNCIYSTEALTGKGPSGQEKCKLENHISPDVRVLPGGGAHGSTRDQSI
The assay can be described thus: (§1) Inhibition of Kv2.1 channel in […] INS1 cells assessed as inhibition of outward K+ current by electrophysiology/patch clamp technique. Format: cell-based. On the technique in general: In patch-clamp work, channel activity is measured electrically.

The target in assay [2] is T2, Potassium voltage-gated channel subfamily B member 1 (Homo sapiens) (UniProt Q14721).
T2 sequence (whole entry): T1 sequence (Q14721 whole entry)
The description is as §1. Type of assay: cell-based.

Structures are written as SMILES. The source made the active and inactive calls. No cut-off for these calls is given here.

As a reminder, the IC50 is the point on the concentration scale where inhibition reaches its midpoint. Consider `COc1cccc(OC)c1C(=O)c1c(O)cc(C)c(OC)c1C1=C(c2c(OC)cccc2OC)c2c(O)cc(C)c(OC)c2C1=O`, for which, in assay [1], the IC50 came out at 590 nM.
On the same count and under the same terms, for `COc1cccc(OC)c1C(=O)c1c(O)cc(C)c(OC)c1CC(=O)c1c(OC)c(C)cc(O)c1C(=O)c1c(OC)cccc1OC` the value was 1000 nM.
On to `COc1cccc(OC)c1C(=O)c1c(O)cc(C)c(OC)c1COC(C)=O`, for which the inhibition entry in assay [2] was “inactive”.

For the origin of these results see ChEMBL document CHEMBL3576828, “Acredinones A and B, voltage-dependent potassium channel inhibitors from the sponge-derived fungus Acremonium sp. F9A015” (J Nat Prod, 2015).
